Measured values from patent publication US20040162428A1, “6-(2,6-difluorophenyl)-triazolopyrimidines as fungicides” (priority 2001, published 2004).

System: Botrytis cinerea
Test: Comparison trial: control of gray mould (Botrytis cinerea) on fruit slices of green pepper
Type: in vivo
Conditions: green pepper fruit slices sprayed with 500 ppm, inoculated after 2 hours, incubated four days at 18-20° C.; untreated infected to 100%
Text: The active compounds, separately or together, were formulated as a 10% emulsion in a mixture of 70% by weight of cyclohexanone, 20% by weight of Nekanil® LN (Lutensol® AP6, wetting agent having emulsifying and dispersant action based on ethoxylated alkylphenols) and 10% by weight of Wettol® EM (nonionic emulsifier based on ethoxylated castor oil) and diluted with water to the desired concentration. Comparison trial—Control of gray mould (Botrytis cinerea) on fruit slices of green pepper Fruit slices of green pepper were sprayed to run-off with an aqueous suspension, containing the concentration of active ingredient or their mixture mentioned in the table below, prepared from a stock solution containing 10% of the active ingredient; 85% cyclohexanone and 5% emulsifier. After 2 hours the sprayed-on layer had dried, the disks were inoculated with a spore suspension of Botrytis cinerea containing 1,7×10^6 spores per ml in 2 wt. % aqueous biomalt solution. The infected fruit slices were then incubated in chambers with high humidity for four days at 18-20° C. The fruit slice area under fungal attack was then assessed visually in percent.

| Structure (SMILES) | infection (fruit slice area under fungal attack in percent) |
| --- | --- |
| Fc1cccc(F)c1-c1c(Cl)nc2ncnn2c1NCC(F)(F)F [A] | 100% |
| CC(Nc1c(-c2c(F)cccc2F)c(Cl)nc2ncnn12)C(F)(F)F (centres unmarked) [B] | 20% |
